{
  "source": "patent US20230065158A1",
  "about": "“OXABICYCLOHEPTANES FOR TREATMENT OF SMALL CELL LUNG CANCER” (Lixte Biotechnology, Inc., priority 2021, published 2023)",
  "key": {"advanced solid tumors": {"test_system": "advanced solid tumors", "conditions": "cited from earlier work"}, "H524 cells": {"test_system": "H524 cells", "experiment": "Seahorse XF Cell Energy Phenotype Test", "format": "cell-based", "conditions": "LB100 2.5 μM", "procedure": "FIGS. 5A-5F depict the effect of LB-100 on cell energy phenotype in SCLC cells. FIG. 5A: LB100 treatment (2.5 μM) induced metabolic switch in H524 cells. Cell energy phenotype was obtained by using XF Cell Energy Phenotype Reporter Generator. Empty squares indicate baseline energy phenotype, solid squares represent stressed energy phenotype measured after oligomycin/FCCP injection. FIGS. 5B and 5C: OCR and ECARin control (blue circles) and LB-100 (orange circles) H524 cells were measured overtime. (n=2, six different wells for each […]). FIG. 5D: Effect of LB-100 (10 μM) on H69 cell energy phenotype. FIGS. 5E and 5F: Effect of mitochondrial stressor on OCR and ECAR in H69 cells. Blue circles indicate control and orange circles show LB-100 treatment. (n=2, six technical replicates).\nNext, we determined the effect of LB100 on ATP production in SCLC cells employing the Seahorse XF Cell Energy Phenotype Test. […] After drug treatment, we counted the number of cells and examined them for viability using exclusion of trypan blue as a readout. Cellular basal oxygen consumption rate (OCR) and extra-cellular acidification rate (ECAR) measurements were determined on a Seahorse XF96 analyzer. […]"}, "[1]": {"target": "protein phosphatase 2A (PP2A) (Homo sapiens, UniProt P67775)", "sequence (P67775 whole entry)": "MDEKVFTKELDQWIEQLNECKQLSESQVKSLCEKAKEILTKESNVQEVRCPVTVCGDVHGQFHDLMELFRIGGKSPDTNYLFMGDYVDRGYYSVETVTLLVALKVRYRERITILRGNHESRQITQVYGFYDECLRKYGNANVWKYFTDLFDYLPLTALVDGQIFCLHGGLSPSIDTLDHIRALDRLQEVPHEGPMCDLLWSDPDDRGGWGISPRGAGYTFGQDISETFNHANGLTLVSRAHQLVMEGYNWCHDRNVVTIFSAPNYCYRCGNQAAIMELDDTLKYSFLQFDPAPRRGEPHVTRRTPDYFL", "experiment": "Inhibition of PP2A versus PP1", "format": "biochemical", "conditions": "PP2A vs PP1"}, "MET": {"test_system": "MET", "experiment": "MET phosphorylation (Tyr 1234/1235) western blot after HGF stimulation", "format": "cell-based", "conditions": "HGF 10 min", "text": "FIGS. 4A-4F depict a reactome pathway analysis of PamGene PTKs and STKs after LB-100 treatment of H524 cells and Biolog phenotype MicroArray. […] Table includes 10 carbon sources affected by LB-100 (n=3). […] P<0.001 (***) for control (untreated cells) vs. LB-100. FIG. 4D: Amplex Red Glucose/Oxidase assay kit was used to measure glucose level in cell culture media. […] Glucose concentration detected in initial medium and counted as 100%. Subtracting final medium level of glucose from initial glucose medium concentration yielded % glucose in the medium with cells (n=3). Effect of LB-100 on MET phosphorylation. […] FIG. 4F: H524 cell lysates (control, LB-100, carboplatin and combination (LB-100/carboplatin) were analyzed by western blots to check phosphorylation status of MET at Ser985 and Tyr1234/1235. Actin was used as a loading control (n=3). […]\nWhole cell lysates were prepared using RIPA lysis buffer and proteins were detected by immunoblotting using antibodies specific against PP2A A, PP2A C, Phospho-Histone H2AX (S139), MET, pMet (Tyr 1234/1235), Cleaved Caspase 3 and pan-Actin antibodies from CST (City of Industry, CA), Cleaved PARP1 (Santa Cruz Biotechnology, Dallas, Tex.) and pMET (Ser985) (ThermoFisher Scientific, Waltham, Mass.) were used as described previously (22)."}, "H526 cells": {"test_system": "H526 cells", "conditions": "human, 72 h", "excerpt": "To determine specific cytotoxicity, we used Cell Counting Kit-8 (Dojindo Molecular Technologies, Rockville, Md.) as previously described (50)."}},
  "note": "“Also recorded” adds a separate entry of the source.",
  "data": [
    {"smiles": "C[NH+]1CCN(C(=O)C2C(C(=O)O)[C@H]3CC[C@@H]2O3)CC1", "note": "(stereo in doubt) [LB-100, 3-[(4-Methylpiperazin-1-yl)carbonyl]-7-oxabicyclo[2.2.1]heptane-2-carboxylic acid]", "values": [
      {"measurement": "tolerability / adverse events", "setting": "advanced solid tumors; Phase I trial", "result": "no notable adverse events; also recorded: well tolerated"},
      {"measurement": "patients who achieved stable disease", "setting": "advanced solid tumors; Phase I, advanced solid tumors", "result": "10 out of 20"},
      {"measurement": "basal OCR lower compared to untreated cells", "setting": "H524 cells", "result": 4, "unit": "fold"},
      {"measurement": "inhibits PP2A more efficiently than protein phosphatase 1 (PP1)", "setting": "[1]", "result": "about 80 fold"},
      {"measurement": "level of HGF phosphorylation of MET", "setting": "MET; H69, LB100 20 μM", "result": "significantly decreased"},
      {"measurement": "MET basal and HGF activated phosphorylation", "setting": "MET; H524, LB100 5 μM", "result": "almost abrogated"},
      {"measurement": "IC50", "setting": "H526 cells", "result": 7.2, "unit": "µM"}
    ]}
  ]
}
